# Numbered stars: 1 amine (or outer) side, 2 acyl side, 3 side chain; on linkers, the order of the positions; unused ones are H or OH. Square brackets hold non-standard residues; d marks the D form. Peptide text beside a SMILES is read from it. X1 = C#Cc1cccc(-c2cn(C[C@H](N[*:1])C(=O)[*:2])nn2)c1; X2 = C#Cc1cccc(-c2cnnn2C[C@H](N[*:1])C(=O)[*:2])c1
# How the values were obtained:
# mMC3R = mMC3R (Mus musculus, UniProt P33033); assay: AlphaScreen cAMP agonist assay in HEK293 cells stably expressing mMC3R; conditions: for Fold diff (mMC3R): decrease in agonist potency compared to peptide 1
# Sequence of mMC3R (P33033 whole entry): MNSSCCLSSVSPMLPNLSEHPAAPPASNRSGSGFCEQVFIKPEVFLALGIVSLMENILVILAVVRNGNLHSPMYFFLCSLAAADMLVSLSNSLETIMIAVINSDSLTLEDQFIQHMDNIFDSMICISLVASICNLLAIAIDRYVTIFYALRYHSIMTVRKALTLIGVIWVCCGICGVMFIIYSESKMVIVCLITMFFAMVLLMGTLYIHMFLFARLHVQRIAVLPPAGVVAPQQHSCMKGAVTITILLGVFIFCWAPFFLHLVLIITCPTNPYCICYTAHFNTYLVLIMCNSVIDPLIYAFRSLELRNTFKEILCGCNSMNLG
# mMC1R = mMC1R (Mus musculus, UniProt Q01727); assay: AlphaScreen cAMP agonist assay in HEK293 cells stably expressing mMC1R; conditions: for Fold diff (mMC1R): decrease in agonist potency compared to peptide 1
# Sequence of mMC1R (Q01727 whole entry): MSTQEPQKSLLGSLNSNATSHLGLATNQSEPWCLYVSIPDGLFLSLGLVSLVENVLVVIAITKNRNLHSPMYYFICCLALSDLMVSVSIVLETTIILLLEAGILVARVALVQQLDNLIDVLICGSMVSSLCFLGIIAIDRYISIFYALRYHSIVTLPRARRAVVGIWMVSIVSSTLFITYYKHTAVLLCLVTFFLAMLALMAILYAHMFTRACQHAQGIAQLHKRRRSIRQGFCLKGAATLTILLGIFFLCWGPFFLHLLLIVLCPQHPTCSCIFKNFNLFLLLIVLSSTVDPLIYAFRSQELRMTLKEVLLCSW
# mMC5R = mMC5R (Mus musculus, UniProt P41149); assay: AlphaScreen cAMP agonist assay in HEK293 cells stably expressing mMC5R; conditions: for Fold diff (mMC5R): decrease in agonist potency compared to peptide 1
# Sequence of mMC5R (P41149 whole entry): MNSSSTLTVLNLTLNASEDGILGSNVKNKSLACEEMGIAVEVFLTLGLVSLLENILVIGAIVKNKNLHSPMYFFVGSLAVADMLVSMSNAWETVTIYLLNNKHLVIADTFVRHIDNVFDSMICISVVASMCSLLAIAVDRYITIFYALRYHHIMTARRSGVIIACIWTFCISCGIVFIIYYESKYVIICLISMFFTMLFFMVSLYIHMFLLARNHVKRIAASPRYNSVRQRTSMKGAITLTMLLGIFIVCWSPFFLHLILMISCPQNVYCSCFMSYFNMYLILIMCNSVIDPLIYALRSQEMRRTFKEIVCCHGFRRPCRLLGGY
# mMC4R = mMC4R (Mus musculus, UniProt P56450); assay: AlphaScreen cAMP agonist assay in HEK293 cells stably expressing mMC4R; conditions: for Fold diff (mMC4R): decrease in agonist potency compared to peptide 1
# Sequence of mMC4R (P56450 whole entry): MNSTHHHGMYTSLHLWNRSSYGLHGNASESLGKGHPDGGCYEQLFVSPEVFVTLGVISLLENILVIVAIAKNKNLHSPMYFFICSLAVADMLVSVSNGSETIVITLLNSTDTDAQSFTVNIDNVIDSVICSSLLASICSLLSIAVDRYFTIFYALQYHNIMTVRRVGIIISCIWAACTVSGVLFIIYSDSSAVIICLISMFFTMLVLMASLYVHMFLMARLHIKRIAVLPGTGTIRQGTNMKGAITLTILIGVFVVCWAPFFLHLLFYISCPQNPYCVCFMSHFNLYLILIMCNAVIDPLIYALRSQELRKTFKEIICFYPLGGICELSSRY
EC50 (mMC3R),EC50 (mMC1R),EC50 (mMC5R),EC50 (mMC4R),Fold diff (mMC3R) (mMC3R),Fold diff (mMC1R) (mMC1R),Fold diff (mMC5R) (mMC5R),Fold diff (mMC4R) (mMC4R),Compound
0.0022 ± 0.00058 µM,0.00014 ± 1e-05 µM,0.0024 ± 0.00031 µM,0.00043 ± 0.00013 µM,,,,,"C[C@@H]1NC(=O)[C@H](CC(N)=O)NC(=O)[C@H](Cc2c[nH]c3ccccc23)NC(=O)[C@H](CCCN=C(N)N)NC(=O)[C@@H](Cc2ccccc2)NC(=O)[C@H](Cc2cnc[nH]2)NC(=O)[C@@H](NC(=O)[C@@H](N)Cc2ccc(O)cc2)CSSC[C@@H](C(=O)N[C@@H](Cc2ccc(O)cc2)C(N)=O)NC(=O)[C@H](Cc2ccccc2)NC1=O [Peptide 1, Tyr-c[Cys-His-DPhe-Arg-Trp-Asn-Ala-Phe-Cys]-Tyr-NH2, reference compound]"
1.46 ± 0.245 µM,0.802 ± 0.227 µM,0.294 ± 0.0048 µM,1.52 ± 0.328 µM,665 fold,5728 fold,122 fold,3540 fold,C#Cc1cccc(-c2cn(C[C@H](NC(=O)[C@H](Cc3ccccc3)NC(=O)[C@H](C)NC(=O)[C@H](CC(N)=O)NC(=O)[C@H](Cc3c[nH]c4ccccc34)NC(=O)[C@H](CCCNC(=N)N)NC(=O)[C@@H](Cc3ccccc3)NC(=O)[C@H](Cc3c[nH]cn3)NC(=O)[C@H](Cn3cc(-c4cccc(C#C)c4)nn3)NC(=O)[C@@H](N)Cc3ccc(O)cc3)C(=O)N[C@@H](Cc3ccc(O)cc3)C(N)=O)nn2)c1 [Peptide 9] (H-Y[X1]H[dF]RWNAF[X1]Y-NH2)
0.404 ± 0.052 µM,0.116 ± 0.04 µM,0.107 ± 0.017 µM,0.142 ± 0.03 µM,184 fold,829 fold,45 fold,330 fold,C#Cc1cccc(-c2cnnn2C[C@H](NC(=O)[C@H](Cc2ccccc2)NC(=O)[C@H](C)NC(=O)[C@H](CC(N)=O)NC(=O)[C@H](Cc2c[nH]c3ccccc23)NC(=O)[C@H](CCCNC(=N)N)NC(=O)[C@@H](Cc2ccccc2)NC(=O)[C@H](Cc2c[nH]cn2)NC(=O)[C@H](Cn2nncc2-c2cccc(C#C)c2)NC(=O)[C@@H](N)Cc2ccc(O)cc2)C(=O)N[C@@H](Cc2ccc(O)cc2)C(N)=O)c1 [Peptide 12] (H-Y[X2]H[dF]RWNAF[X2]Y-NH2)

# From article PMC5955799 (ACS chemical neuroscience, 2018)
